This note sets out measurements from US12516130B2, “Single-domain antibody for targeting prostate specific membrane antigen (PSMA)” (NATIONAL INSTITUTE FOR BIOTECHNOLOGY IN THE NEGEV LTD., priority 2019, dated 2026).

Numbering of substitutions follows the chain as printed.

The test system of data set [1] is PC3-PIP and PC3-flu cells. The experiment in a line: Confocal imaging of NB7cys, DOX and NB7cysDOX internalization. Particulars: 15 min, 1.5 μg/ml DOX or molar equivalent. Format: cell-based.
Data set [2] has as its system PC3-PIP cells. The experiment in a line: Cell quantification assay. It counts as cell-based. Particulars: 24 h, 1.5 μg/ml DOX or equivalent molar amount. On the procedure: PC3-PIP cells (5×10^4) were seeded in 24-well plates. […] After 24 h of treatment, the number of cells in each well was counted using the Countess II automated cell counter (Invitrogen).
For data set [3], the system named is PC3-PIP cells. The experiment in a line: Cell viability assay (propidium iodide, FACS). The settings on record: 24 h, 1.5 μg/ml DOX or equivalent molar amount. Format: cell-based.
Protocol: PC3-PIP cells were grown and treated as described in the cell quantification assay section, above. The cells were harvested, incubated with 0.5 μg propidium iodide (PI; Biolegend), and their fluorescence intensity was measured in a BD C6 flow cytometer.
Data set [4] has as its system PC3-PIP cells. The experiment in a line: Mitochondrial potential assay (TMRE). Format: cell-based. Particulars: 24 h, 1.5 μg/ml DOX or equivalent molar amount.
Protocol: PC3-PIP cells (2×10^4) were seeded on 96-well plates. […] After 24 h, tetramethylrhodamine ethyl ester (TMRE; Abcam, UK) was added according to the protocol provided by the manufacturer. Fluorescence intensity was measured at an excitation wavelength of 549 nm and an emission wavelength of 575 nm.
Data set [5] deals with PC3-PIP xenografts. The experiment in a line: In vivo tumor growth inhibition. The settings on record: fewer than in saline group. More on the design: species or system athymic nude mice. On the procedure:
PC3-PIP xenografts were grown in athymic nude mice, as described in the in vivo optical imaging section, above. When the average tumor size reached 200 mm^3, the mice were divided into three groups (controlled for average tumor size), each subjected to a different treatment: 150 μl saline (n=7), 2 mg/kg DOX (n=8), or 1.4 mg/kg (˜40 μg) NB7cysDOX (n=8). The treatment was administered to the tail vein twice a week for three consecutive weeks. At each sample point, the tumor volume was calculated (V=0.5×L×W×H), as previously described (Tomayko and Reynolds, 1989). A mouse was euthanized when tumor volume reached 1,500 mm^3 or when its physical condition deteriorated, according to the guidelines of the Committee for the Ethical Care and Use of Animals in Research at BGU. The estimated tumor volume prior to euthanasia and the rate-based T/C were determined as described previously (Aston et al., 2017).

Data set [6] has as its system PC3-PIP xenografts. The experiment in a line: Histology of treated tumors (IF, H&E, TUNEL). The settings on record: 4 d after treatment termination.
Description: Four days following the final dose of each treatment in the in vivo tumor growth inhibition assay, the mice were euthanized, and their xenografts were fixated in 4% formaldehyde and embedded in paraffin. Tumor sections (5 μm thickness) were subjected to hematoxylin and eosin (H&E) staining, TUNEL assay, and immunofluorescence (IF), as previously described (Pittala et al., 2018, Fischer et al., 2008). […] 4′,6-diamidino-2-phenylindole (DAPI) was used for nuclei staining. […] TUNEL, PI, and IF were visualized in a confocal microscope.
For data set [7], the system named is PC3-PIP (PSMA+) cells. The experiment in a line: FACS cell binding assay, PC3-PIP cells. Format: cell-based. The settings on record: effect of K43PrK mutation.
Protocol: Once the cells reached 70% confluence, 10^5 cells were added to each well of 96-well U-shaped bottom plates (Greiner Bio-One, Austria), centrifuged at 150 g for 5 min, and washed with PBSA (namely, PBS+1 g/1 BSA). NBs were added to the cells in concentrations of 0.1, 0.5, 2, 5, 10, 20, 50, 100, 500, or 1000 nM. The cells were incubated with the NBs for 2 h, followed by three PBSA washing steps. An anti-His antibody conjugated to fluorescein isothiocyanate (FITC) (Invitrogen) was then added at a dilution of 1:100, incubated with the cells for 1 h, and washed three times with PBSA. The cells were kept on ice throughout the experiment. The fluorescence of each sample was measured using an Accuri C6 flow cytometry analyzer (BD Biosciences, CA). Each experimental condition was repeated three times. To generate a titration curve, the value for each sample was determined using the equation:
[formula] where Fsample is the mean fluorescence value, Flow is the fluorescence at the lowest concentration for PC3-PIP cells, and Fhigh is the fluorescence at the highest concentration for PC3-PIP cells. A binding curve was generated using GraphPad Prism 5.0.

Consider `COc1cccc2c1C(=O)c1c(O)c3c(c(O)c1C2=O)C[C@@](O)(C(=O)CO)C[C@@H]3O[C@H]1C[C@H](N)[C@H](O)[C@H](C)O1` [DOX, doxorubicin], for which the “cellular distribution in PC3-PIP and PC3-flu cells” value in data set [1] was “diffused spontaneously into both PC3-PIP and PC3-flu cells”. In addition, in data set [2], the “number of cells versus untreated cells” value was “significantly reduced the number of cells in the well”. The “PI signal (late apoptosis and necrosis)” value in data set [3] is “considerably increased the signal”. Besides, the “mitochondrial membrane potential (TMRE signal)” value in data set [4] is given as “similarly reduced the mitochondrial membrane potential”. For the same molecule, the “mice reaching maximal tumor size, DOX versus NB7cysDOX groups” value in data set [5] is listed as “not significantly different from each other”. Further, in data set [6], the “H&E staining of tumors” value is “necrotic, fewer, and with large vacancies between cells”; the “TUNEL assay of tumors” value was “significant apoptosis”.
Turning to “Carbonyl cyanide 4-(trifluorornethoxy) phenythydrazone [FCCP]”, in data set [4], the “mitochondrial membrane potential (TMRE signal)” value is given as “significantly reduced the mitochondrial membrane potential”.

B1: NB7 K43PrK: NB7 with lysine K43 changed to the non-natural amino acid PrK (protein)
VHH: QVQLQESGGGSVQAGGSLRLSCTAPGYTDSNYYMSWFRQAPGXEREWVAGVNTGRGSTSYADSVKGRFTISQDNAKNTMFLQMNSLKPEDTAIYYCAVAACHFCDSLPKTQDEYILWGQGTQVTVSSAAAYPYDVPDYGS
modifications: non-natural residues; left off: small tags and cut ends
notes: NB7 with lysine K43 changed to the non-natural amino acid PrK
B1: in data set [7], the “binding to PC3-PIP cells versus NB7, FACS” value is on record as “no significant change in binding”.

B2: NB7cys: NB7 with an added cysteine in the C-terminus (protein)
VHH (part 1 of 2): B1 VHH with X43K
VHH (part 2 of 2): C
modifications: left off: small tags and cut ends
notes: NB7 with an added cysteine in the C-terminus
For the molecule B2, in data set [3], the “PI signal (late apoptosis and necrosis)” value is reported as “did not change the PI signal”.
